Test results taken from PubChem BioAssay AID1259407 (Chemical Carcinogenesis Research Information System (CCRIS), 2018).
Active and inactive are the calls of the source. No rule for the calls is given here.

Tested on: CCRIS mutagenicity, Ames/micronucleus/aberration tests
Assay: CCRIS mutagenicity studies
[1] = Test System: AMES SALMONELLA TYPHIMURIUM, Strain/Indicator: TA98, Metabolic Activation: NONE, Method: PREINCUBATION
[2] = Test System: AMES SALMONELLA TYPHIMURIUM, Strain/Indicator: TA100, Metabolic Activation: NONE, Method: PREINCUBATION
[3] = Test System: AMES SALMONELLA TYPHIMURIUM, Strain/Indicator: TA100, Metabolic Activation: RAT, LIVER, S-9, AROCLOR 1254, Method: STANDARD PLATE
[4] = Test System: AMES SALMONELLA TYPHIMURIUM, Strain/Indicator: TA100, Metabolic Activation: NONE, Method: STANDARD PLATE

O=C(CCl)c1ccccc1
mutagenic call (Test System: AMES SALMONELLA TYPHIMURIUM, Strain/Indicator: TA98, Metabolic Activation: HAMSTER, LIVER, S-9, AROCLOR 1254 (10%), Method: PREINCUBATION): inactive; negative
mutagenic call (Test System: AMES SALMONELLA TYPHIMURIUM, Strain/Indicator: TA98, Metabolic Activation: NONE): inactive; negative
mutagenic call [1]: inactive; negative
mutagenic call (Test System: AMES SALMONELLA TYPHIMURIUM, Strain/Indicator: TA98, Metabolic Activation: RAT, LIVER, S-9, AROCLOR 1254 (10%), Method: PREINCUBATION): inactive; negative
mutagenic call (Test System: AMES SALMONELLA TYPHIMURIUM, Strain/Indicator: TA98, Metabolic Activation: RAT, LIVER, S-9, PHENOBARBITONE AND BETA-NAPHTHOFLAVONE): inactive; negative
mutagenic call (Test System: AMES SALMONELLA TYPHIMURIUM, Strain/Indicator: TA100, Metabolic Activation: HAMSTER, LIVER, S-9, AROCLOR 1254 (10%), Method: PREINCUBATION): inactive; negative
mutagenic call (Test System: AMES SALMONELLA TYPHIMURIUM, Strain/Indicator: TA100, Metabolic Activation: NONE): inactive; negative
mutagenic call [2]: inactive; negative
mutagenic call (Test System: AMES SALMONELLA TYPHIMURIUM, Strain/Indicator: TA100, Metabolic Activation: RAT, LIVER, S-9, AROCLOR 1254 (10%), Method: PREINCUBATION): inactive; negative
mutagenic call (Test System: AMES SALMONELLA TYPHIMURIUM, Strain/Indicator: TA100, Metabolic Activation: RAT, LIVER, S-9, PHENOBARBITONE AND BETA-NAPHTHOFLAVONE): inactive; negative
mutagenic call (Test System: AMES SALMONELLA TYPHIMURIUM, Strain/Indicator: TA1535, Metabolic Activation: HAMSTER, LIVER, S-9, AROCLOR 1254 (10%), Method: PREINCUBATION): inactive; negative
mutagenic call (Test System: AMES SALMONELLA TYPHIMURIUM, Strain/Indicator: TA1535, Metabolic Activation: NONE, Method: PREINCUBATION): inactive; negative
mutagenic call (Test System: AMES SALMONELLA TYPHIMURIUM, Strain/Indicator: TA1535, Metabolic Activation: RAT, LIVER, S-9, AROCLOR 1254 (10%), Method: PREINCUBATION): inactive; negative
mutagenic call (Test System: AMES SALMONELLA TYPHIMURIUM, Strain/Indicator: TA1537, Metabolic Activation: HAMSTER, LIVER, S-9, AROCLOR 1254 (10%), Method: PREINCUBATION): inactive; negative
mutagenic call (Test System: AMES SALMONELLA TYPHIMURIUM, Strain/Indicator: TA1537, Metabolic Activation: NONE, Method: PREINCUBATION): inactive; negative
mutagenic call (Test System: AMES SALMONELLA TYPHIMURIUM, Strain/Indicator: TA1537, Metabolic Activation: RAT, LIVER, S-9, AROCLOR 1254 (10%), Method: PREINCUBATION): inactive; negative
mutagenic call (Test System: AMES SALMONELLA TYPHIMURIUM, Strain/Indicator: TA1538, Metabolic Activation: NONE): inactive; negative
mutagenic call (Test System: AMES SALMONELLA TYPHIMURIUM, Strain/Indicator: TA1538, Metabolic Activation: RAT, LIVER, S-9, PHENOBARBITONE AND BETA-NAPHTHOFLAVONE): inactive; negative

c1ccc2c(c1)Cc1ccc3ccc4ccccc4c3c1-2
mutagenic call [3]: inactive; negative

Cc1ccc2nc3c4c(ccc3c(C)c2c1)[C@H](O)[C@@H](O)C=C4
mutagenic call [3]: active; positive

CC1=C[C@@H]2c3cccc4[nH]cc(c34)C[C@H]2N(C)C1
mutagenic call (Test System: AMES SALMONELLA TYPHIMURIUM, Strain/Indicator: TA98, Metabolic Activation: RAT, LIVER, S-9, AROCLOR 1254, Method: STANDARD PLATE): active; positive
mutagenic call [4]: inactive; negative
mutagenic call [3]: active; positive
mutagenic call (Test System: AMES SALMONELLA TYPHIMURIUM, Strain/Indicator: TA1537, Metabolic Activation: RAT, LIVER, S-9, AROCLOR 1254, Method: STANDARD PLATE): inactive; negative

N[C@@H](CSC(Cl)=C(Cl)Cl)C(=O)O
mutagenic call [2]: active; positive
mutagenic call [4]: active; positive
mutagenic call (Test System: AMES SALMONELLA TYPHIMURIUM, Strain/Indicator: TA100, Metabolic Activation: RAT, KIDNEY, S-9, AROCLOR 1254, Method: STANDARD PLATE): active; positive
mutagenic call (Test System: AMES SALMONELLA TYPHIMURIUM, Strain/Indicator: TA2638, Metabolic Activation: NONE, Method: PREINCUBATION): inactive; negative

CCCNc1snc2ccccc12
mutagenic call (Test System: AMES SALMONELLA TYPHIMURIUM, Strain/Indicator: TA98, Metabolic Activation: NONE, Method: STANDARD PLATE): inactive; negative
mutagenic call (Test System: AMES SALMONELLA TYPHIMURIUM, Strain/Indicator: TA98, Metabolic Activation: S-9, Method: STANDARD PLATE): inactive; negative
mutagenic call [4]: inactive; negative
mutagenic call (Test System: AMES SALMONELLA TYPHIMURIUM, Strain/Indicator: TA100, Metabolic Activation: S-9, Method: STANDARD PLATE): inactive; negative
mutagenic call (Test System: AMES SALMONELLA TYPHIMURIUM, Strain/Indicator: TA1535, Metabolic Activation: NONE, Method: STANDARD PLATE): inactive; negative
mutagenic call (Test System: AMES SALMONELLA TYPHIMURIUM, Strain/Indicator: TA1535, Metabolic Activation: S-9, Method: STANDARD PLATE): inactive; negative
mutagenic call (Test System: AMES SALMONELLA TYPHIMURIUM, Strain/Indicator: TA1537, Metabolic Activation: NONE, Method: STANDARD PLATE): inactive; negative
mutagenic call (Test System: AMES SALMONELLA TYPHIMURIUM, Strain/Indicator: TA1537, Metabolic Activation: S-9, Method: STANDARD PLATE): inactive; negative

O=C1c2ccccc2C(=O)c2c1cc(O[C@@H]1O[C@H](CO[C@@H]3OC[C@@H](O)[C@H](O)[C@H]3O)[C@@H](O)[C@H](O)[C@H]1O)c(CO)c2O
mutagenic call [1]: inactive; negative
mutagenic call (Test System: AMES SALMONELLA TYPHIMURIUM, Strain/Indicator: TA98, Metabolic Activation: RAT, LIVER, S-9, PCB, Method: PREINCUBATION): inactive; negative
mutagenic call [2]: active; positive
mutagenic call (Test System: AMES SALMONELLA TYPHIMURIUM, Strain/Indicator: TA100, Metabolic Activation: RAT, LIVER, S-9, PCB, Method: PREINCUBATION): inactive; negative
mutagenic call (Test System: UDS RODENT HEPATOCYTES, Strain/Indicator: THY INCORP, Metabolic Activation: NONE): active; positive
